Test results: patent publication US20240018123A1, “COMPOUND FOR INHIBITING OR DISINTEGRATING ANDROGEN RECEPTOR, AND PHARMACEUTICAL USE THEREOF” (KOREA RESEARCH INSTITUTE OF CHEMICAL TECHNOLOGY, priority 2020, published 2024)
Read-outs that look alike come from different tables or passages of the source.

Experiments:
[1] = molecular target: T1, Androgen receptor (AR) (Homo sapiens, UniProt P10275, T878A); assay: Assessment of AR proteolytic activity (Western blotting of LNCap cell lysates); assay type: cell-based; details: 24 hours of treatment, Western blotting quantified with Image J
T1 construct: 5.5×10^5 LNCap cells were injected into each well of a 6-well plate; endogenous in cells; host or cells: LNCaP
T1 sequence (P10275 1-920 T878A): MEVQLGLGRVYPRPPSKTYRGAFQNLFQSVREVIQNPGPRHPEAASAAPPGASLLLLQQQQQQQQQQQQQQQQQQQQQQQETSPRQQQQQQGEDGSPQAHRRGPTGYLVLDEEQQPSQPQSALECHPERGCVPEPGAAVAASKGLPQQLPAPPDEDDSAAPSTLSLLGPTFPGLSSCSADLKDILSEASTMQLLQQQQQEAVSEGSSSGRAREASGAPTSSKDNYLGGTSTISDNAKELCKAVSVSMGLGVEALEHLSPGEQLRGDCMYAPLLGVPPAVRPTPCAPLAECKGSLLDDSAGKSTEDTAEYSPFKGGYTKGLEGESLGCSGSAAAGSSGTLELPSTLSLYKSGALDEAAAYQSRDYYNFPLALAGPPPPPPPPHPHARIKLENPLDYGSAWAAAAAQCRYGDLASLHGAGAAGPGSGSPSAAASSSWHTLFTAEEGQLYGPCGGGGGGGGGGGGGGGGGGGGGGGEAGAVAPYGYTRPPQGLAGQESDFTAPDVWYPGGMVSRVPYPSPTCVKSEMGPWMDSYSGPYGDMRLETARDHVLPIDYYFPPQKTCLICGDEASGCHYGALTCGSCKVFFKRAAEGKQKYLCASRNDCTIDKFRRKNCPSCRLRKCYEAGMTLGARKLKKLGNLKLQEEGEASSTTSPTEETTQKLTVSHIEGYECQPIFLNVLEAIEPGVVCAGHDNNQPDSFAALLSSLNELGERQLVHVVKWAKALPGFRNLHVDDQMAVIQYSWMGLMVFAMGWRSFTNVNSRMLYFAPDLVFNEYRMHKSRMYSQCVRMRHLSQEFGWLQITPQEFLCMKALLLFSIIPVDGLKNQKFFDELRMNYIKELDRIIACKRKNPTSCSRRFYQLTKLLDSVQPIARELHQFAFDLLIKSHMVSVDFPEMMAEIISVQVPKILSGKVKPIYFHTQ
Method in brief: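 LNCap cells seeded at 5.5×10^5 per well and treated with compound for 24 hours. Lysates prepared in RIPA buffer (pH 7.5, with protease inhibitors). AR protein levels assessed by Western blot with densitometric quantification.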

[2] = test system: VCaP cells; assay: Cytotoxicity assessment (Cell-titer-glo cell viability), VCaP
Procedure: In order to evaluate the androgen receptor (AR) cytotoxicity of the compounds according to the present invention, the following experiment was conducted. Specifically, 1.5×10^3 (LNCaP) or 4×10^3 (VCaP, 22RV1), respectively, of LNCaP, VCaP, and 22RV1 cells were injected into each well of a 96-well plate. The next day, each well was treated with the compound at a final concentration of 3 nM, 10 nM, 30 nM, 100 nM, 300 nM, 1 μM, 3 μM, and 10 μM. […] After 6 days of treatment, Cell-titer-glo (promega) was treated and reacted for 10 minutes, and cell viability was measured with a multimode plate reader (PerkinElmer, Inc.), and the change was quantified compared to when DMSO was treated.

[3] = read-out: VCaP (CC50), VCaP cells, 6 days of treatment, Cell-titer-glo, vs DMSO

remaining activity at 1 µM ([1]; read-out: Degradation (1 μM treated in LNCaP, % AR remaining)) | Compound | Degradation (1 μM treated in LNCaP, % AR remaining) [1] | CC50 [2, 3] | CC50 ([2]; Homo sapiens, VCaP, 144 h, read-out: VCaP (CC50, μM))
 | CC1(C)C(NC(=O)c2ccc(N3CCN(CCCOC4CCN(C(=O)CNc5ccc6nnn(C7CCC(=O)NC7=O)c(=O)c6c5)CC4)CC3)cc2)C(C)(C)C1Oc1ccc(C#N)c(Cl)c1 (centres unmarked) [Example 37, N-((1r,3r)-3-(3-chloro-4-cyanophenoxy)-2,2,4,4-tetramethylcyclobutyl)-4-(4-(3-((1-((3-(2,6-dioxopiperidin-3-yl)-4-oxo-3,4-dihydrobenzo[d][1,2,3]triazin-6-yl)glycyl)piperidin-4-yl)oxy)propyl)piperazin-1-yl)benzamide] | 14.9% | 0.0291 µM | 
 | CC1(C)C(NC(=O)c2ccc(-c3cnn(C4CCN(CC5CCN(C(=O)C6CCN(c7ccc8nnn(C9CCC(=O)NC9=O)c(=O)c8c7)CC6)CC5)CC4)c3)cc2)C(C)(C)C1Oc1ccc(C#N)c(Cl)c1 (centres unmarked) [Example 82, N-((1r,3r)-3-(3-chloro-4-cyanophenoxy)-2,2,4,4-tetramethylcyclobutyl)-4-(1-(1-((1-(1-(3-(2,6-dioxopiperidin-3-yl)-4-oxo-3,4-dihydrobenzo[d][1,2,3]triazin-6-yl)piperidine-4-carbonyl)piperidin-4-yl)methyl)piperidin-4-yl)-1H-pyrazol-4-yl)benzamide] | 27% | 0.0144 µM | 
 | CC1(C)C(NC(=O)c2ccc(N3CCN(CC4CCN(C(=O)C5CN(c6ccc7nnn(C8CCC(=O)NC8=O)c(=O)c7c6)C5)CC4)CC3)nc2)C(C)(C)C1Oc1ccc(C#N)c(Cl)c1 (centres unmarked) [Example 80, N-((1r,3r)-3-(3-chloro-4-cyanophenoxy)-2,2,4,4-tetramethylcyclobutyl)-6-(4-((1-(1-(3-(2,6-dioxopiperidin-3-yl)-4-oxo-3,4-dihydrobenzo[d][1,2,3]triazin-6-yl)azetidine-3-carbonyl)piperidin-4-yl)methyl)piperazin-1-yl)nicotinamide] | 56% | 0.01 µM | 
 | CC1(C)C(NC(=O)c2ccc(N3CCN(CC4CCN(C(=O)C5CCN(c6ccc7nnn(C8CCC(=O)NC8=O)c(=O)c7c6)CC5)CC4)CC3)nc2)C(C)(C)C1Oc1ccc(C#N)c(Cl)c1 (centres unmarked) [Example 81, N-((1r,3r)-3-(3-chloro-4-cyanophenoxy)-2,2,4,4-tetramethylcyclobutyl)-6-(4-((1-(1-(3-(2,6-dioxopiperidin-3-yl)-4-oxo-3,4-dihydrobenzo[d][1,2,3]triazin-6-yl)piperidine-4-carbonyl)piperidin-4-yl)methyl)piperazin-1-yl)nicotinamide] | 18% | 0.0238 µM | 
 | CC1(C)C(NC(=O)c2ccc(N3CCN(C=C4CCN(C(=O)C5CCN(c6ccc7nnn(C8CCC(=O)NC8=O)c(=O)c7c6)CC5)CC4)CC3)cc2)C(C)(C)C1Oc1ccc(C#N)c(Cl)c1 (centres unmarked) [Example 65, N-((1r,3r)-3-(3-chloro-4-cyanophenoxy)-2,2,4,4-tetramethylcyclobutyl)-4-(4-((1-(1-(3-(2,6-dioxopiperidin-3-yl)-4-oxo-3,4-dihydrobenzo[d][1,2,3]triazin-6-yl)piperidine-4-carbonyl)piperidin-4-ylidene)methyl)piperazin-1-yl)benzamide] | 25% | 0.044 µM | 
 | CC1(C)[C@H](NC(=O)c2ccc(C3CCN(CC4CCN(C(=O)C5CCN(c6ccc7nnn(C8CCC(=O)NC8=O)c(=O)c7c6)CC5)CC4)CC3)cc2)C(C)(C)[C@H]1Oc1ccc(C#N)c(Cl)c1 (some centres unmarked) [Example 52, N-((1r,3r)-3-(3-chloro-4-cyanophenoxy)-2,2,4,4-tetramethylcyclobutyl)-4-(1-((1-(1-(3-(2,6-dioxopiperidin-3-yl)-4-oxo-3,4-dihydrobenzo[d][1,2,3]triazin-6-yl)piperidine-4-carbonyl)piperidin-4-yl)methyl)piperidin-4-yl)benzamide] | 32.2% | 0.0594 µM | 
 | CC1(C)C(NC(=O)c2ccc(N3CCN(CC4(O)CCN(C(=O)C5CCN(c6ccc7nnn(C8CCC(=O)NC8=O)c(=O)c7c6)CC5)CC4)CC3)cc2)C(C)(C)C1Oc1ccc(C#N)c(Cl)c1 (centres unmarked) [Example 55, N-((1r,3r)-3-(3-chloro-4-cyanophenoxy)-2,2,4,4-tetramethylcyclobutyl)-4-(4-((1-(1-(3-(2,6-dioxopiperidin-3-yl)-4-oxo-3,4-dihydrobenzo[d][1,2,3]triazin-6-yl)piperidine-4-carbonyl)-4-hydroxypiperidin-4-yl)methyl)piperazin-1-yl)benzamide] | 8.6% | 0.0365 µM | 
 | CC1(C)C(NC(=O)c2ccc(N3CCN(CCCC4CCN(C(=O)C5CCN(c6ccc7nnn(C8CCC(=O)NC8=O)c(=O)c7c6)CC5)CC4)CC3)cc2)C(C)(C)C1Oc1ccc(C#N)c(Cl)c1 (centres unmarked) [Example 46, N-((1r,3r)-3-(3-chloro-4-cyanophenoxy)-2,2,4,4-tetramethylcyclobutyl)-4-(4-(3-(1-(1-(3-(2,6-dioxopiperidin-3-yl)-4-oxo-3,4-dihydrobenzo[d][1,2,3]triazin-6-yl)piperidine-4-carbonyl)piperidin-4-yl)propyl)piperazin-1-yl)benzamide] | 15.6% | 0.0522 µM | 
 | CC1(C)C(NC(=O)c2ccc(N3CCN(CCCOC4CCN(C(=O)C5CCN(c6ccc7nnn(C8CCC(=O)NC8=O)c(=O)c7c6)CC5)CC4)CC3)cc2)C(C)(C)C1Oc1ccc(C#N)c(Cl)c1 (centres unmarked) [Example 35, N-((1r,3r)-3-(3-chloro-4-cyanophenoxy)-2,2,4,4-tetramethylcyclobutyl)-4-(4-(3-((1-(1-(3-(2,6-dioxopiperidin-3-yl)-4-oxo-3,4-dihydrobenzo[d][1,2,3]triazin-6-yl)piperidine-4-carbonyl)piperidin-4-yl)oxy)propyl)piperazin-1-yl)benzamide] | 6.4% | 0.0525 µM | 
 | CC1(C)[C@H](NC(=O)c2ccc(C#CCC3CCN(C(=O)C4CCN(c5ccc6nnn(C7CCC(=O)NC7=O)c(=O)c6c5)CC4)CC3)cc2)C(C)(C)[C@H]1Oc1ccc(C#N)c(Cl)c1 (some centres unmarked) [Example 86, N-((1r,3r)-3-(3-chloro-4-cyanophenoxy)-2,2,4,4-tetramethylcyclobutyl)-4-(3-(1-(1-(3-(2,6-dioxopiperidin-3-yl)-4-oxo-3,4-dihydrobenzo[d][1,2,3]triazin-6-yl)piperidine-4-carbonyl)piperidin-4-yl)prop-1-yn-1-yl)benzamide] | 20% | 0.0349 µM | 
 | CC1(C)C(NC(=O)c2ccc(N3CCN(CC4(F)CCN(C(=O)C5CCN(c6ccc7nnn(C8CCC(=O)NC8=O)c(=O)c7c6)CC5)CC4)CC3)cc2)C(C)(C)C1Oc1ccc(C#N)c(Cl)c1 (centres unmarked) [Example 62, N-((1r,3r)-3-(3-chloro-4-cyanophenoxy)-2,2,4,4-tetramethylcyclobutyl)-4-(4-((1-(1-(3-(2,6-dioxopiperidin-3-yl)-4-oxo-3,4-dihydrobenzo[d][1,2,3]triazin-6-yl)piperidine-4-carbonyl)-4-fluoropiperidin-4-yl)methyl)piperazin-1-yl)benzamide] | 15% | 0.0345 µM | 
 | CC1(C)[C@H](NC(=O)c2ccc(N3CCN(C(=O)C4CCN(c5ccc6nnn(C7CCC(=O)NC7=O)c(=O)c6c5)CC4)CC3)cc2)C(C)(C)[C@H]1Oc1ccc(C#N)c(Cl)c1 (some centres unmarked) [Example 42, N-((1r,3r)-3-(3-chloro-4-cyanophenoxy)-2,2,4,4-tetramethylcyclobutyl)-4-(4-(1-(3-(2,6-dioxopiperidin-3-yl)-4-oxo-3,4-dihydrobenzo[d][1,2,3]triazin-6-yl)piperidine-4-carbonyl)piperazin-1-yl)benzamide] | 10% | 0.0494 µM | 
8.6% | CC1(C)[C@H](NC(=O)c2ccc(N3CCC(CN4CCN(C(=O)C5CCN(c6ccc7nnn(C8CCC(=O)NC8=O)c(=O)c7c6)CC5)CC4)CC3)cc2)C(C)(C)[C@H]1Oc1ccc(C#N)c(Cl)c1 (some centres unmarked) [Example 49, N-((1r,3r)-3-(3-chloro-4-cyanophenoxy)-2,2,4,4-tetramethylcyclobutyl)-4-(4-((4-(1-(3-(2,6-dioxopiperidin-3-yl)-4-oxo-3,4-dihydrobenzo[d][1,2,3]triazin-6-yl)piperidine-4-carbonyl)piperazin-1-yl)methyl)piperidin-1-yl)benzamide] |  |  | 0.0678 µM
